Tests used:
[1] = target: T1, renin in human high renin plasma (Homo sapiens, UniProt P00797); assay: Renin inhibitory effect in a human high renin plasma (angiotensin I by radioimmunoassay); format: biochemical; settings: 60 minutes, 37° C., read-out: IC50 (molar concentration)
T1 construct: 500 μl of human high renin plasma; from tissue; host or cells: human high renin plasma
T1 sequence (P00797 67-406): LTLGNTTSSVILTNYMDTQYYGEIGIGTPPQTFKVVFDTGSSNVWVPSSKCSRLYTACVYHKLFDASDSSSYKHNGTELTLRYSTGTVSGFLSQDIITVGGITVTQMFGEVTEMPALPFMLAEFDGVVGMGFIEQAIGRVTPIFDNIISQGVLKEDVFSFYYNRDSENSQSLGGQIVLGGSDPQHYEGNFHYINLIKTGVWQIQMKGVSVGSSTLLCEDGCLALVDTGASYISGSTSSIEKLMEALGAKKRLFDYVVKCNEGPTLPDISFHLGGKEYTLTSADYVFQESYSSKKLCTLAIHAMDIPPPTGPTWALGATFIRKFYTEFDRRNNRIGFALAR

[2] = target: T2, human renin (Homo sapiens, UniProt P00797); assay: Human renin-sheep renin substrate reaction system in vitro (angiotensin I by radioimmunoassay); format: biochemical; settings: pH 7.4, 15 minutes, 37° C., read-out: IC50 (molar concentration)
T2 sequence (P00797 67-406): T1 sequence (P00797 67-406)
Procedure: Human renin-sheep renin substrate reaction system in vitro
To a mixture containing 200 μl of a 125 mM pyrophosphate buffer (pH 7.4), 25 μl of a 20 mM aqueous solution of L-phenylalanyl-L-alanyl-L-prolin as an angiotensin cnverting enzyme inhibitor, 50 μl of semipurified sheep renin substrate (2000 ng angiotensin I/ml), 50 μl of dimethyl sulfoxide solution of an amino acid compound of the present invention and 150 μl of deionized water was added 25 μl of purified human renin (20-30 ng angiotensin I/ml/hr. The mixture was incubated for 15 minutes on a water bath at 37° C., and the reaction mixture was allowed to stand for 5 minutes on a water bath at 100° C. to stop the reaction. After cooling, 200 μl of the solution were taken up and the amount of angiotensin I produced by the addition of renin was determined by radiommunoassay. The inhibitory effect was calculated by the following equation.
As a control, the same procedure as above was carried out by using 50 μl of dimethyl sulfoxide alone in place of the 50 μl of dimethyl sulfoxide solution containing an amino acid compound of the present invention.

IC50 [1] [µM] | IC50 [2] [µM] | SMILES
0.15 |  | COC(=O)C[C@H](O)[C@H](CC(C)C)NC(=O)[C@H](Cc1c[nH]cn1)NC(=O)C(CC(=O)N1CCOCC1)Cc1cccc2ccccc12 (stereo partly drawn) [Methyl N-[2-(1-naphthylmethyl)-3-(morpholinocarbonyl)propionyl]-L-histidylstatinate]
 | 0.066 | CC(C)C[C@H](NC(=O)[C@H](Cc1c[nH]cn1)NC(=O)C(CC(=O)N1CCOCC1)Cc1cccc2ccccc12)[C@@H](O)CC(=O)OC(C)C (stereo partly drawn) [Isopropyl N-[2-(1-naphthylmethyl)-3-(morphlinocarbonyl)propionyl]-L-histidylstatinate]
0.025 | 0.078 | COC(=O)C(O)[C@H](CC(C)C)NC(=O)[C@H](Cc1c[nH]cn1)NC(=O)C(CC(=O)N(C)C)Cc1cccc2ccccc12 (mixture of isomers) [Methyl (2RS, 3S)-3-{N-[2-(1-naphthylmethyl)-3-(dimethylcarbamoyl)propionyl]-L-histidyl}amino-2-hydroxy-5-methylhexanoate]

— patent US4656269A, “Histidine derivatives” (Kissei Pharmaceutical Co., Ltd., priority 1986, dated 1987)
